pEC50: −log10 of the molar value.
tested on: genotype A, "Long" strain RSV; test: RSV-A assay (CPE, ATPlite readout in Hep-2 cells); format: cell-based; settings: human respiratory syncytial virus, HEp-2, Hep-2 cells, genotype A "Long" strain RSV, MOI 0.1; read-out: Human RSV-A (“Long” strain) EC50
From the text: Hep-2 cells, (originally derived from tumors grown in irradiated-cortisonised weanling rats that had been injected with epidermoid carcinoma tissue from a person's larynx, but later found to be indistinguishable from HeLa cells by PCR DNA analysis), were used for the culturing of genotype A, “Long” strain RSV. Flasks were inoculated with RSV and viral stocks were collected once cytopathic effect (CPE) was greater than […]. Viral stocks in […] sucrose media were snap frozen using liquid nitrogen to increase viral stability. Viral stock titers were quantified by tissue culture infectious dose 50% (TCID50) using 8,000 cells per well and 3-fold viral dilutions across a 96-well plate, cultured for 4 days. Viral stock titers were also quantified by a plaque forming unit assay, as described elsewhere.
Following extensive parameter testing, the final assay is run as follows: Hep-2 cells are seeded into the inner 60 wells of a 96-well plate at 8,000 cells per well in a volume of 50 μL using Growth Media (DMEM without phenol red, 1% L-Glut, 1% Penn/Strep, 1% nonessential amino acids, 10% heat-inactivated FBS). 2-fold serial dilutions of control and test compounds are added to the wells in duplicate in a total volume of 25 μL. Viral stock is then added to the wells at a multiplicity of infection (MOI) of 0.1 in a volume of 25 μL, bringing the total volume of each well to 100 μL. The MOI is calculated using the PFU/mL, or TCID50 if unavailable. Each 96-well plate has a control column of 6 wells with cells and virus but no compound (negative control, max CPE), a column with cells but no compound or virus (positive control, minimum CPE), and a column with no cells or virus or compound (background plate/reagent control). The control wells with cells but no virus are given an additional 25 μL of growth media containing an equal quantity of sucrose as those wells receiving the viral stock in order to keep consistent in media and volume conditions. The outer wells of the plate are filled with 125 μL of moat media (DMEM, 1% Penn/Strep) to act as a thermal and evaporative moat around the test wells. Following a 5-day incubation period, the plates are read using ATPlite (50 uL added per well), which quantifies the amount of ATP (a measure of cell health) present in each well. Assay plates are read using the Envision luminometer. […] EC50 ranges are as follows: A<0.2 μM; B>0.2 μM.

SMILES | pEC50
C[C@]1(C(N)=O)COc2c1cc([C@@](O)(CNC(=O)c1cc(C#N)c3ncccc3c1)C(F)(F)F)nc2-c1ccc(F)cc1 [Example 274] | > 6.70
COc1cc(C(=O)NC[C@](O)(c2cc3c(c(-c4ccc(F)cc4)n2)OC[C@]3(C)CNc2ccccc2)C(F)(F)F)ccc1OCCO [Example 5] | < 6.70
COc1cc(C(=O)NC[C@](O)(c2cc3c(c(C#Cc4cccc(F)c4)n2)OC[C@]3(C)C(N)=O)C(F)(F)F)ccc1OC1CC1 [Example 516] | < 6.70
C#Cc1nc([C@@](O)(CNC(=O)c2ccc(OC3CC3)c(OC)c2)C(F)(F)F)cc2c1OC[C@]2(C)C(N)=O [Example 509] | < 6.70
C[C@]1(C(N)=O)COc2c1cc([C@@](O)(CNC(=O)c1ccc(OC3CC3)c(-c3cnc(C(F)(F)F)nc3)c1)C(F)(F)F)nc2-c1ccc(F)cc1 [Example 111] | < 6.70
C[C@]1(C(N)=O)COc2c1cc([C@@](O)(CNC(=O)c1ccc(OC3CC3)c(-c3ccc(C(F)(F)F)cn3)c1)C(F)(F)F)nc2-c1ccc(F)cc1 [Example 108] | < 6.70
C[C@]1(C(N)=O)COc2c1cc([C@@](O)(CNC(=O)c1cc3cccnc3[nH]1)C(F)(F)F)nc2-c1ccc(F)cc1 [Example 303] | > 6.70
C[C@]1(C(N)=O)COc2c1cc([C@@](O)(CNC(=O)c1cnc3cccnc3c1)C(F)(F)F)nc2-c1ccc(F)cc1 [Example 242] | < 6.70
COc1cc(Nc2cc(C(=O)NC[C@](O)(c3cc4c(c(-c5ccc(F)cc5)n3)OC[C@]4(C)C(N)=O)C(F)(F)F)cc3cccnc23)nc(OC)n1 [Example 345] | < 6.70
C[C@]1(C(=O)NCC(N)=O)COc2c1cc([C@@](O)(CNC(=O)c1cc(OC3CC3)c3ncccc3c1)C(F)(F)F)nc2-c1ccc(F)cc1 [Example 476] | > 6.70
Cc1cc2cc(C(=O)NC[C@](O)(c3cc4c(c(-c5ccc(F)cc5)n3)OC[C@]4(C)C(N)=O)C(F)(F)F)cc(NC(=O)C3(F)CC3)c2nc1C [Example 662] | > 6.70
COc1cc(C(=O)NC[C@](O)(c2cc3c(c(-c4ccc(C)cc4)n2)OC[C@]3(C)C(N)=O)C(F)(F)F)cc2sc(N)nc12 [Example 435] | > 6.70
C[C@]1(C(N)=O)COc2c1cc([C@@](O)(CNC(=O)c1cc(NC(=O)c3ncc[nH]3)c3ncccc3c1)C(F)(F)F)nc2-c1ccc(F)cc1 [Example 403] | > 6.70
C[C@]1(C(N)=O)COc2c1cc([C@@](O)(CNC(=O)c1cc(O)c3ncccc3c1)C(F)(F)F)nc2-c1ccc(F)cc1 [Example 229] | < 6.70
COc1cc(C(=O)NCC(O)(c2cc3c(c(-c4ccc(F)cc4)n2)OC[C@]3(C)C(=O)NS(=O)(=O)C2CC2)C(F)(F)F)ccc1OCCO (stereo partly drawn) [Example 12] | < 6.70
C[C@]1(C(N)=O)COc2c1cc([C@@](O)(CNC(=O)c1cc3ccccc3cn1)C(F)(F)F)nc2-c1ccc(F)cc1 [Example 236] | < 6.70
C[C@]1(C(N)=O)COc2c1cc([C@@](O)(CNC(=O)c1ccc(OC3CC3)c(C3=CCOCC3)c1)C(F)(F)F)nc2-c1ccc(F)cc1 [Example 122] | > 6.70
C[C@]1(C(N)=O)COc2c1cc([C@@](O)(CNC(=O)c1cc(NC(=O)[C@@H]3CCN3)c3ncccc3c1)C(F)(F)F)nc2-c1ccc(F)cc1 [Example 400] | < 6.70
CN1Cc2cc(C(=O)NC[C@](O)(c3cc4c(c(-c5ccc(F)cc5)n3)OC[C@]4(C)C(N)=O)C(F)(F)F)ccc2C1=O [Example 644] | > 6.70
Cc1nc(COc2cc(C(=O)NC[C@](O)(c3cc4c(c(-c5ccc(F)cc5)n3)OC[C@]4(C)C(N)=O)C(F)(F)F)cc3cccnc23)co1 [Example 391] | < 6.70
COc1cccc(C(=O)NC[C@](O)(c2cc3c(c(-c4ccc(F)cc4)n2)OC[C@]3(C)C(N)=O)C(F)(F)F)c1 [Example 309] | < 6.70
COc1cc(C(=O)NC[C@](O)(c2cc3c(c(C#Cc4cccc(Cl)c4F)n2)OC[C@]3(C)C(N)=O)C(F)(F)F)ccc1OC1CC1 [Example 513] | < 6.70
COc1ccc2c(C(=O)NC[C@](O)(c3cc4c(c(-c5ccc(F)cc5)n3)OC[C@]4(C)C(N)=O)C(F)(F)F)n[nH]c2c1 [Example 331] | < 6.70
C[C@]1(C(N)=O)COc2c1cc([C@@](O)(CNC(=O)c1cc3ccc(Cl)cc3[nH]1)C(F)(F)F)nc2-c1ccc(F)cc1 [Example 605] | > 6.70

SMILES | pEC50
COc1cc(C(=O)NC[C@](O)(c2cc3c(c(-c4ccc(F)cc4)n2)OC[C@]3(C)C(=O)NCCC(C)(C)O)C(F)(F)F)cc2cccnc12 [Example 494] | > 6.70
C[C@]1(C(N)=O)COc2c1cc([C@@](O)(CNC(=O)c1cc(F)c3ncccc3c1)C(F)(F)F)nc2-c1ccc(F)cc1 [Example 63] | > 6.70
C[C@@H](O)COc1ccc(C(=O)NC[C@](O)(c2cc3c(c(-c4ccc(F)cc4)n2)OC[C@]3(F)C(N)=O)C(F)(F)F)cc1OC1CC1 [Example 674] | < 6.70
CC(C)(O)CNC(=O)COc1cc(C(=O)NC[C@](O)(c2cc3c(c(-c4ccc(F)cc4)n2)OC[C@]3(C)C(N)=O)C(F)(F)F)cc2cccnc12 [Example 377] | < 6.70
C[C@]1(C(N)=O)COc2c1cc([C@@](O)(CNC(=O)c1cc(Nc3ccncn3)c3ncccc3c1)C(F)(F)F)nc2-c1ccc(F)cc1 [Example 343] | > 6.70
C[C@]1(C(N)=O)COc2c1cc([C@@](O)(CNC(=O)c1cc(OCC(=O)NC[C@@H](O)CO)c3ncccc3c1)C(F)(F)F)nc2-c1ccc(F)cc1 [Example 379] | < 6.70
C[C@]1(C(N)=O)COc2c1cc([C@@](O)(CNC(=O)c1ccc(F)c(OC3CC3)c1)C(F)(F)F)nc2-c1ccc(F)cc1 [Example 294] | > 6.70
COc1cc(C(=O)NC[C@](O)(c2cc3c(c(-c4ccc(F)cc4)n2)OC[C@]3(C)C(N)=O)C(F)(F)F)ccc1C#N [Example 318] | < 6.70
C[C@]1(C(N)=O)COc2c1cc([C@@](O)(CNC(=O)c1ccccc1)C(F)(F)F)nc2-c1ccc(F)cc1 [Example 308] | < 6.70
C[C@]1(C(N)=O)COc2c1cc([C@@](O)(CNC(=O)c1cc(-c3ccccn3)c3ncccc3c1)C(F)(F)F)nc2-c1ccc(F)cc1 [Example 353] | > 6.70
COc1cc(C(=O)NC[C@](O)(c2cc3c(c(-c4ccc(F)cc4)n2)OC[C@]3(C)C(N)=O)C(F)(F)F)ccc1-c1nncs1 [Example 201] | > 6.70
C[C@]1(C(N)=O)COc2c1cc([C@@](O)(CNC(=O)c1cc(OCC(F)F)c3ncccc3c1)C(F)(F)F)nc2-c1ccc(F)cc1 [Example 285] | > 6.70
COc1cc(C(=O)NC[C@](O)(c2cc3c(c(-c4ccc(F)cc4)n2)OC[C@]3(C)C(N)=O)C(F)(F)F)cc2cn(C)nc12 [Example 427] | > 6.70
C[C@]1(C(=O)NCc2ccoc2)COc2c1cc([C@@](O)(CNC(=O)c1cc(OC3CC3)c3ncccc3c1)C(F)(F)F)nc2-c1ccc(F)cc1 [Example 490] | > 6.70
CC(C)(O)CNC(=O)[C@@]1(C)COc2c1cc([C@@](O)(CNC(=O)c1cc(OCC(N)=O)c3ncccc3c1)C(F)(F)F)nc2-c1ccc(F)cc1 [Example 506] | > 6.70
Cc1cnc2c(OCC(N)=O)cc(C(=O)NC[C@](O)(c3cc4c(c(-c5ccc(F)cc5)n3)OC[C@]4(C)C(=O)NCC(C)(C)O)C(F)(F)F)cc2c1 [Example 507] | > 6.70
C[C@]1(C(N)=O)COc2c1cc([C@@](O)(CNC(=O)c1cc(O)c3nc(N)sc3c1)C(F)(F)F)nc2-c1ccc(F)cc1 [Example 442] | > 6.70
C[C@]1(C(N)=O)COc2c1cc([C@@](O)(CNC(=O)c1cncnc1)C(F)(F)F)nc2-c1ccc(F)cc1 [Example 298] | < 6.70
Cn1cc2cc(C(=O)NC[C@](O)(c3cc4c(c(-c5ccc(F)cc5)n3)OC[C@]4(C)C(N)=O)C(F)(F)F)cc(F)c2n1 [Example 654] | > 6.70
C[C@]1(C(N)=O)COc2c1cc([C@@](O)(CNC(=O)c1ccc3nc(N)oc3c1)C(F)(F)F)nc2-c1ccc(F)c(Cl)c1 [Example 426] | > 6.70
C[C@]1(C(N)=O)COc2c1cc([C@@](O)(CNC(=O)c1cc(NC(=O)N3CCC3)c3ncccc3c1)C(F)(F)F)nc2-c1ccc(F)cc1 [Example 410] | > 6.70
C[C@]1(C(N)=O)COc2c1cc([C@@](O)(CNC(=O)c1cc(OCC(N)=O)c3ncccc3c1)C(F)(F)F)nc2-c1ccc(F)c(Cl)c1 [Example 382] | > 6.70
C[C@]1(C(N)=O)COc2c1cc([C@@](O)(CNC(=O)c1ccc(-c3ccnc(C(F)(F)F)c3)c(OC3CC3)c1)C(F)(F)F)nc2-c1ccc(F)cc1 [Example 152] | < 6.70
C[C@]1(C(N)=O)COc2c1cc([C@@](O)(CNC(=O)c1ccc3oc(=O)[nH]c3c1)C(F)(F)F)nc2-c1ccc(F)cc1 [Example 323] | < 6.70

Source: patent US11505558B1, “Antiviral heterocyclic compounds” (Enanta Pharmaceuticals, Inc., priority 2019, dated 2022)
